Reference: patent publication US20110077231A1, “COMPOUNDS” (BOEHRINGER INGELHEIM INTERNATIONAL GMBH, priority 2007, published 2011)

Biological target: T1, hBK1 receptor (Homo sapiens, UniProt P46663)
T1 construct: expressed in transfected cells; host or cells: CHO cells (membrane homogenate)
T1 sequence (P46663 1-353): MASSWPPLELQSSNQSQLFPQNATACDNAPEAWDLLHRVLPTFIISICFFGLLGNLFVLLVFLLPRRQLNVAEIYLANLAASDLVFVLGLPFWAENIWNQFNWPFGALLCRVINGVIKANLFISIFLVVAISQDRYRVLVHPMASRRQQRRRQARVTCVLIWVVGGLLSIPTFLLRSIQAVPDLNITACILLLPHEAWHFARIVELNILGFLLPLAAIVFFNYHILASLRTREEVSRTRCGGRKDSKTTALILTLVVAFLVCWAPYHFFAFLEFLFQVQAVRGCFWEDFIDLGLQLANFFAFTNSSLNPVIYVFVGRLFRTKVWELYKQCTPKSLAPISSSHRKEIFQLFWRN
Assay: hBK1 receptor binding (radioligand displacement on CHO cell membranes)
Conditions: membranes of CHO cells expressing the hBK1 receptor; 0.5 to 1.0 nM [3H]-kallidin (DesArg10, Leu9); 60 minutes at room temperature
Experimental: Description of the Method of hBK1 Receptor Binding
CHO cells expressing the hBK1 receptor are cultivated in Dulbecco's modified medium. The medium from confluent cultures is removed and the cells are washed with PBS buffer, scraped off and isolated by centrifugation. The cells are then homogenized in suspension and the homogenate is centrifuged and resuspended. The protein content is determined and the membrane preparation obtained in this manner is then frozen at −80° C. After thawing, 200 μl of the homogenate (50 to 100 μg of proteins/assay) are incubated at room temperature with 0.5 to 1.0 nM of kallidin (DesArg10, Leu9), [3,4-prolyl-3,43H(N)] and increasing concentrations of the test substance in a total volume of 250 μl for 60 minutes. The incubation is terminated by rapid filtration through GF/B glass fibre filters which had been pretreated with polyethyleneimine (0.3%). The protein-bound radioactivity is measured in a TopCount NXT. Non-specific binding is defined as radioactivity bound in the presence of 1.0 μM of […]. The concentration/binding curve is analysed using a computer-assisted nonlinear curve fitting. The Ki which corresponds to the test substance is determined using the data obtained in this manner. […]

Row | Compound | Ki [nM]
1 | COc1cc(C)c(S(=O)(=O)N(C)CCOCC(=O)N(C)[C@H]2CC[C@H](OCCN3CCCC3)CC2)c(C)c1 [Example 2] | 15
2 | COc1cc(C)c(S(=O)(=O)N(C)CCOCC(=O)N(C)[C@H]2CC[C@H](OCCN(C)C)CC2)c(C)c1 [Example 1] | 53.6
